Reference: PubChem BioAssay (NCI)
Values joined by “and” are separate entries in the source; they are usually repeats but may differ in a detail not shown here. Equal values may be shown once.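 Briefly, cells in 96-well plates were exposed to five compound concentrations for 48 h, and endpoints were estimated by linear interpolation. At the GI50, growth is halved. TGI: total growth inhibition.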 Where a SMILES comes first, the peptide text is derived from it. Peptide text beside a SMILES is read from it. [ ]: non-standard residue; d: D form. The star is where a group is joined. * marks the point of attachment. Phe(4-NO2) = N[CH](Cc1ccc([N+](=O)[O-])cc1)C(=O)O; Boc = CC(C)(C)OC(=O)*; OtBu = CC(C)(C)O*

Assays:
Assay in all cases: DTP human tumour cell line panel, 48 h
NCI-H522 lung = system: NCI-H522 lung
SF-268 CNS = system: SF-268 CNS
SNB-19 CNS = system: SNB-19 CNS
DU-145 prostate = system: DU-145 prostate
MALME-3M melanoma = system: MALME-3M melanoma
M14 melanoma = system: M14 melanoma
CAKI-1 renal = system: CAKI-1 renal
SK-OV-3 ovarian = system: SK-OV-3 ovarian
COLO 205 colon = system: COLO 205 colon
NCI-H226 lung = system: NCI-H226 lung
TK-10 renal = system: TK-10 renal

Structure (SMILES) | TGI (NCI-H522 lung) | TGI (SF-268 CNS) | TGI (SNB-19 CNS) | TGI (DU-145 prostate) | TGI (MALME-3M melanoma) | TGI (M14 melanoma) | TGI (CAKI-1 renal) | TGI (SK-OV-3 ovarian) | TGI (COLO 205 colon) | TGI (NCI-H226 lung) | TGI (TK-10 renal) | GI50 (COLO 205 colon) | GI50 (NCI-H226 lung) | GI50 (NCI-H522 lung) | GI50 (SF-268 CNS) | GI50 (MALME-3M melanoma) | GI50 (M14 melanoma) | GI50 (CAKI-1 renal)
O=C(Nc1ccccc1)N1N=C(c2ccccc2)C1c1ccccc1 (stereo not drawn) | 37 µM | 50.8 µM | > 100 µM | > 100 µM | 64.2 µM | 60.4 µM | 95.3 µM | > 100 µM | > 100 µM | 37.3 µM | > 100 µM | – | – | – | – | – | – | –
CSCCC(NC(=O)C(CC(C)C)NC(=O)CNC(=O)OC(C)(C)C)C(=O)N(C)C (stereo not drawn) (Boc-Gly-Leu-Met-NMe2; configuration not given here) | > 100 µM | > 100 µM | > 100 µM | > 100 µM | > 100 µM | > 100 µM | > 100 µM | > 100 µM | > 100 µM | > 100 µM | > 100 µM | – | – | – | – | – | – | –
C=CCN1C(=O)/C(=C/c2ccc(Cl)cc2)N=C1SC1OC(COC(C)=O)C(OC(C)=O)C(OC(C)=O)C1OC(C)=O (stereo not drawn) | 17.8 µM and 42.9 µM | 5.46 µM | 87.6 µM | > 100 µM | 15 µM and > 100 µM | > 100 µM | 28.3 µM and > 100 µM | > 61.8 µM and 65.6 µM | > 100 µM | 24.5 µM and 78 µM | > 100 µM | > 89.5 µM and 31.9 µM | 9.63 µM and 21.9 µM | – | – | – | – | –
CC(=O)c1nccc2c1c(C)nc1ccccc12 | > 100 µM | > 100 µM | > 100 µM | > 100 µM | > 100 µM | > 100 µM | > 100 µM | > 100 µM | > 100 µM | 67.9 µM | > 100 µM | – | – | – | – | – | – | –
CCCCC(=C=C1CCCCC1O)C1CCCN1C(=O)OC(C)(C)C (stereo not drawn) | 32.8 µM | 32.7 µM | 31.1 µM | 31.4 µM | 31.6 µM | 30.9 µM | 24.4 µM | 31.2 µM | 43.8 µM | 34.8 µM | 29.8 µM | – | – | – | – | – | – | –
CC(C)[Si]1(C(C)C)OCC2OC(n3cnc4c(N)ncnc43)C(N)C2O[Si](C(C)C)(C(C)C)O1 (stereo not drawn) | 26.4 µM | 41.4 µM | 97.5 µM | 31.4 µM | > 100 µM | 26.3 µM | 35.3 µM | > 53.7 µM | 23.9 µM | 25.8 µM | 28.9 µM | – | – | – | – | – | – | –
COc1ccccc1OC/C(N=Cc1ccncc1)=N/NC(=O)c1ccncc1 | > 100 µM | > 100 µM | > 100 µM | > 100 µM | > 100 µM | > 100 µM | > 100 µM | > 100 µM | > 100 µM | > 100 µM | > 100 µM | – | – | – | – | – | – | –
O=C(NCCCCl)c1c(O)c2ccccc2[nH]c1=O | > 100 µM | > 100 µM | > 100 µM | > 100 µM | > 100 µM | > 100 µM | > 100 µM | > 100 µM | > 100 µM | > 100 µM | > 100 µM | – | – | – | – | – | – | –
CN(C)CCNc1nc2ccccc2c2c1C(=O)c1ccccc1-2 | 0.895 µM | 2.4 µM | 5.42 µM | 1.51 µM | 1.12 µM | 1.67 µM | 2.54 µM | 13.1 µM | 2.23 µM | 0.862 µM | 10.5 µM | – | – | – | – | – | – | –
CN(C)CCNC(=O)c1cccc2c(NC(CS)C(=O)O)c3ccccc3nc12 (stereo not drawn) | 20.2 µM | 39.6 µM | 50.9 µM | > 100 µM | 11.3 µM | 19.5 µM | 57.1 µM | 80.7 µM | 16 µM | 69.2 µM | > 100 µM | – | – | – | – | – | – | –
COc1cc(C2S/C(=C/c3ccccc3)C(=O)N2c2ccc(Cl)cc2)cc(OC)c1OC (stereo not drawn) | 21.2 µM | > 100 µM | > 100 µM | > 100 µM | 87.2 µM | > 46 µM | > 100 µM | > 100 µM | 5.68 µM | > 100 µM | > 100 µM | – | – | – | – | – | – | –
Cn1c(=O)c2[nH]c(N/N=C3/SCC(=O)N3Cc3ccccc3)nc2n(C)c1=O | > 100 µM | > 100 µM | > 100 µM | > 100 µM | > 100 µM | > 100 µM | > 100 µM | > 100 µM | > 100 µM | > 100 µM | > 100 µM | – | – | – | – | – | – | –
c1csc(-c2ccc(-c3ccc(-c4cccs4)s3)s2)c1 | > 100 µM | > 100 µM | > 100 µM | > 100 µM | > 100 µM | > 100 µM | > 100 µM | > 100 µM | > 100 µM | > 100 µM | > 100 µM | – | – | – | – | – | – | –
COc1ccc(C=O)cc1Oc1ccc(C[C@H]2c3c(cc(OC)c4c3Oc3cc5c(cc3O4)CCN(C)C5=O)CCN2C)cc1 | 18.1 µM | 22.4 µM | 30.2 µM | 25.2 µM | 20.2 µM | 19.1 µM | > 50 µM | 17.5 µM | > 50 µM | 16.8 µM | 18.4 µM | – | – | – | – | – | – | –
O=C(O)CNC(=O)c1cccc2c(=O)c3ccccc3[nH]c12 | > 100 µM | > 100 µM | > 100 µM | > 100 µM | > 100 µM | > 100 µM | > 100 µM | > 100 µM | > 100 µM | > 100 µM | > 100 µM | – | – | – | – | – | – | –
COc1ccc(C[C@H]2COC(=O)[C@@H]2Cc2cc(OC)c(OC)c(OC)c2)cc1OC | > 100 µM | > 100 µM | > 100 µM | > 100 µM | > 100 µM | > 100 µM | > 100 µM | > 100 µM | > 100 µM | > 100 µM | > 100 µM | – | – | – | – | – | – | –
Cc1cc(S(=O)(=O)NC(=NCC(=O)NN)NN)c(S)cc1Cl | > 10 µM | > 10 µM | > 10 µM | > 10 µM | > 10 µM | > 10 µM | > 10 µM | > 10 µM | > 10 µM | > 10 µM | > 10 µM | – | – | – | – | – | – | –
Cc1cnc2[nH]c(-c3ccccc3)cc(=O)c2c1 | 0.526 µM | > 100 µM | > 100 µM | > 100 µM | > 100 µM | > 18 µM | > 100 µM | 16.4 µM | > 100 µM | 9.69 µM | 99.5 µM | – | – | – | – | – | – | –
CN1C/C(=C\c2ccccc2[N+](=O)[O-])C(=O)/C(=C/c2ccccc2[N+](=O)[O-])C1 | 1.05 µM and 0.396 µM | 7.23 µM and 2.86 µM | 16.6 µM and 19.2 µM | 6.66 µM and 3.62 µM | 2.73 µM and 0.505 µM | 4.17 µM and 0.876 µM | 1.41 µM and 0.545 µM | 12.8 µM and 10.8 µM | 0.865 µM and 0.387 µM | 16.3 µM | 2.42 µM and 2.17 µM | – | – | 0.437 µM and 0.187 µM | 1.78 µM and 0.737 µM | 1.29 µM and 0.216 µM | 1.76 µM and 0.298 µM | 0.475 µM and 0.234 µM
COC(=O)C(Cc1ccccc1)NC(=O)CCCNC(=O)OCc1ccccc1 (stereo not drawn) | > 100 µM | > 100 µM | > 100 µM | > 100 µM | 82.7 µM | 32.5 µM | > 100 µM | > 100 µM | > 100 µM | > 100 µM | > 100 µM | – | – | – | – | – | – | –
Cc1nn(C(=O)c2ccccc2O)c2c1C(c1ccc(O)cc1)SC(N)=N2 (stereo not drawn) | > 10 µM | > 10 µM | > 10 µM | > 10 µM | > 10 µM | > 10 µM | > 10 µM | > 10 µM | > 10 µM | > 6.22 µM | > 10 µM | – | – | – | – | – | – | –
CN(Cc1nc2c(N)nc(N)nc2nc1N)c1ccc(C(=O)NC(CCC(=O)O)C(=O)O)cc1 (stereo not drawn) | > 100 µM | > 100 µM | > 100 µM | > 100 µM | > 100 µM | > 100 µM | > 88 µM | > 100 µM | > 100 µM | > 100 µM | > 100 µM | – | – | – | – | – | – | –
CC(C)CC1c2[nH]c3ccccc3c2C[C@H]2C(=O)NC(COC(C)(C)C)C(=O)N12 (stereo partly drawn) | 35.4 µM | 57.5 µM | > 100 µM | > 100 µM | 48.2 µM | 46.7 µM | 79.5 µM | > 100 µM | 38.8 µM | 93 µM | 56.3 µM | – | – | – | – | – | – | –
COc1ccc(S(=O)(=O)Nc2ccc(-c3csc(N4C(=O)/C(=C/C=C\c5ccccc5)N=C4c4ccccc4)n3)cc2)cc1Cl | 47.3 µM | 56.3 µM | > 100 µM | 91.6 µM | 63.1 µM | 83.6 µM | > 100 µM | > 100 µM | > 100 µM | > 100 µM | > 100 µM | – | – | – | – | – | – | –
CC1=CC(c2ccccc2)n2c(nc3cc4ccccc4cc32)N1 (stereo not drawn) | – | > 100 µM | > 100 µM | > 100 µM | > 100 µM | > 100 µM | > 100 µM | > 100 µM | > 100 µM | > 100 µM | > 100 µM | – | – | – | – | – | – | –
O=C(O)c1ccccc1-c1ccccc1C(=O)c1ccccc1 | > 100 µM | > 100 µM | > 100 µM | > 100 µM | > 100 µM | > 100 µM | > 100 µM | > 100 µM | > 100 µM | > 100 µM | > 100 µM | – | – | – | – | – | – | –
COC(=O)C(Cc1ccc([N+](=O)[O-])cc1)NC(=O)C(CC(=O)OC(C)(C)C)NC(=O)OC(C)(C)C (stereo not drawn) (Boc-Asp(OtBu)-[Phe(4-NO2)]-OMe; configuration not given here) | > 100 µM | > 100 µM | > 100 µM | > 100 µM | > 100 µM | > 100 µM | > 100 µM | > 100 µM | > 100 µM | > 100 µM | > 100 µM | – | – | – | – | – | – | –
O=C(O)c1ccc(Nc2cnc3ccc(C(F)(F)F)cc3n2)cc1 | – | > 100 µM | 33.7 µM | 69.5 µM | > 100 µM | > 100 µM | 30.9 µM | > 100 µM | 32.5 µM | 29.4 µM | 44.8 µM | – | – | – | – | – | – | –
